Structures can show the parent of a compound that is named as a salt. Where two headings read alike, the source gives them in different places.
Legend:
S. aureus Smith = assay: In vivo antibacterial activity against systemic infection in mice; parameters: species or system mice (ICR-S); conditions: Staphylococcus aureus, po, mice (ICR-S), an hour after intraperitoneal infection
Method: (§1) Experiment-2 In vivo antibacterial activity against systemic infection in mice (ICR-S)
(§2) The infections were produced by intraperitoneal injection of a suspension of the bacterial culture corresponding to the germ studied. The products were administered orally at an hour after the infection.

K. pneumoniae 1-220S = assay: In vitro antibacterial activity, MIC (standard strain); assay type: cell-based; conditions: Klebsiella pneumoniae, 1220S; K. pneumoniae 1-220S; 10^6 cells/ml; standard strain; read-out: MIC
[1] = tested on: Citrobacter freundii IID 976; assay: as above; assay type: cell-based; conditions: IID976; Citrobacter freundii IID 976; 10^6 cells/ml; standard strain; read-out: MIC
S. pyogenes 3102 = assay: In vitro antibacterial activity, MIC (clinical isolates); assay type: cell-based; conditions: Streptococcus pyogenes; S. pyogenes 3102; 10^6 cells/ml; clinical isolate; read-out: MIC
P. mirabilis IID 994 = assay: In vitro antibacterial activity, MIC (standard strain); assay type: cell-based; conditions: Proteus mirabilis, IID994; P. mirabilis IID 994; 10^6 cells/ml; standard strain; read-out: MIC
S. agalactiae 4049 = assay: In vitro antibacterial activity, MIC (clinical isolates); assay type: cell-based; conditions: Streptococcus agalactiae; S. agalactiae 4049; 10^6 cells/ml; clinical isolate; read-out: MIC
[2] = tested on: Proteus vulgaris IFO 3167; assay: In vitro antibacterial activity, MIC (standard strain); assay type: cell-based; conditions: IFO3167; Proteus vulgaris IFO 3167; 10^6 cells/ml; standard strain; read-out: MIC
S. agalactiae 4368 = assay: In vitro antibacterial activity, MIC (clinical isolates); assay type: cell-based; conditions: Streptococcus agalactiae; S. agalactiae 4368; 10^6 cells/ml; clinical isolate; read-out: MIC
P. aeruginosa IID 1210 = assay: In vitro antibacterial activity, MIC (standard strain); assay type: cell-based; conditions: Pseudomonas aeruginosa, IID1210; P. aeruginosa IID 1210; 10^6 cells/ml; standard strain; read-out: MIC
S. pneumoniae 24 = assay: In vitro antibacterial activity, MIC (clinical isolates); assay type: cell-based; conditions: Streptococcus pneumoniae; S. pneumoniae 24; 10^6 cells/ml; clinical isolate; read-out: MIC
[3] = tested on: Bacillus subtilis PCI 219; assay: In vitro antibacterial activity, MIC (standard strain); assay type: cell-based; conditions: PCI219
E. coli ML 4707 = assay: as above; assay type: cell-based; conditions: Escherichia coli, ML4707
[4] = tested on: Serratia marcescens IID 618; assay: as above; assay type: cell-based; conditions: Serratia marcescens, IID618, Serratia marcescens IID 618; 10^6 cells/ml; standard strain; read-out: MIC
[5] = tested on: Fusobacterium varium KYA 8501; assay: as above; assay type: cell-based; conditions: Fusobacterium varium, KYA8501, Fusobacterium varium KYA 8501; 10^6 cells/ml; standard strain; read-out: MIC
S. pyogenes 4372 = assay: In vitro antibacterial activity, MIC (clinical isolates); assay type: cell-based; conditions: Streptococcus pyogenes; S. pyogenes 4372; 10^6 cells/ml; clinical isolate; read-out: MIC
B. fragilis 25285 = assay: In vitro antibacterial activity, MIC (standard strain); assay type: cell-based, Bacteroides fragilis; conditions: Bacteroides fragilis, 25285, B. fragilis 25285; 10^6 cells/ml; standard strain; read-out: MIC
[6] = tested on: Klebsiella pneumoniae KY(GN)6445; assay: as above; assay type: cell-based; conditions: Klebsiella pneumoniae KY(GN)6445; 10^6 cells/ml; standard strain; read-out: MIC
C. ramosum = assay: as above; assay type: cell-based; conditions: Thomasclavelia ramosa; C. ramosum; 10^6 cells/ml; standard strain; read-out: MIC
S. faecalis 401 = assay: In vitro antibacterial activity, MIC (clinical isolates); assay type: cell-based; conditions: Enterococcus faecalis; S. faecalis 401; 10^6 cells/ml; clinical isolate; read-out: MIC
S. agalactiae 4394 = assay: as above; assay type: cell-based; conditions: Streptococcus agalactiae; S. agalactiae 4394; 10^6 cells/ml; clinical isolate; read-out: MIC
[7] = tested on: Escherichia coli NIHJ JC-2; assay: In vitro antibacterial activity, MIC (standard strain); assay type: cell-based; conditions: Escherichia coli
S. epidermidis IID 866 = assay: as above; assay type: cell-based; conditions: Staphylococcus epidermidis
[8] = tested on: Staphylococcus aureus 209 P; assay: as above; assay type: cell-based
[9] = tested on: Alcaligenes faecalis 0104002; assay: as above; assay type: cell-based; conditions: Alcaligenes faecalis, 0104002, Alcaligenes faecalis 0104002; 10^6 cells/ml; standard strain; read-out: MIC
S. pyogenes 3130 = assay: In vitro antibacterial activity, MIC (clinical isolates); assay type: cell-based; conditions: Streptococcus pyogenes, read-out: MIC
[10] = tested on: Pseudomonas aeruginosa V-1; assay: In vitro antibacterial activity, MIC (standard strain); assay type: cell-based; conditions: V1; Pseudomonas aeruginosa V-1; 10^6 cells/ml; standard strain; read-out: MIC
S. pneumoniae S-4288 = assay: In vivo antibacterial activity against systemic infection in mice; parameters: species or system mice (ICR-S); conditions: Streptococcus pneumoniae, S4288; mice (ICR-S); oral, an hour after intraperitoneal infection; challenge dose 7.5 x 10^4 ~ 4.8 x 10^6 cfu/mouse; read-out: ED50 S. pneumoniae S-4288
Method: as §1, §2

E. coli ML4707 = assay: as above; parameters: species or system mice (ICR-S); conditions: for ED50: Escherichia coli, ML4707, mice (ICR-S), oral, an hour after intraperitoneal infection, challenge dose 2.7 x 10^6 ~ 8.8 x 10^6 cfu/mouse, read-out: ED50 E. coli ML4707
Method: as §1, §2

[11] = Bacillus subtilis PCI 219, 10^6 cells/ml, standard strain, read-out: MIC
[12] = E. coli ML 4707, 10^6 cells/ml, standard strain, read-out: MIC
[13] = NIHJJC2, Escherichia coli NIHJ JC-2, 10^6 cells/ml, standard strain, read-out: MIC
[14] = IID866, S. epidermidis IID 866, 10^6 cells/ml, standard strain, read-out: MIC
[15] = Staphylococcus aureus 209 P, 10^6 cells/ml, standard strain, read-out: MIC
[16] = challenge dose 6.0 x 10^5 cfu/mouse, read-out: ED50 S. aureus Smith

Row | Compound | MIC (K. pneumoniae 1-220S) [µg/mL] | MIC [1] [µg/mL] | MIC (S. pyogenes 3102) [µg/mL] | MIC (P. mirabilis IID 994) [µg/mL] | MIC (S. agalactiae 4049) [µg/mL] | MIC [2] [µg/mL] | MIC (S. agalactiae 4368) [µg/mL] | MIC (P. aeruginosa IID 1210) [µg/mL] | MIC (S. pneumoniae 24) [µg/mL] | MIC [4] [µg/mL] | MIC [5] [µg/mL] | MIC (S. pyogenes 4372) [µg/mL] | MIC (B. fragilis 25285) [µg/mL] | MIC [6] [µg/mL] | MIC (C. ramosum) [µg/mL] | MIC (S. faecalis 401) [µg/mL] | MIC (S. agalactiae 4394) [µg/mL] | MIC [9] [µg/mL] | MIC (S. pyogenes 3130) [µg/mL] | MIC [10] [µg/mL] | other results
1 | NCC1CCN(c2c(F)cc3c(=O)c(C(=O)O)cn(C4CC4)c3c2F)C1 (stereo not drawn) [Example 1, 7-(3-Aminomethyl-l-pyrrolidinyl)-l-cyclopropyl-6,8-difluoro-1,4-dihydro-4-oxo-3-quinolinecarboxylic acid hydrochloride] | 0.05 | 0.05 | 0.05 | 0.05 | 0.05 | 0.025 | 0.05 | 0.78 | 0.05 | 0.2 | 0.78 | 0.05 | 0.39 | 0.05 | 0.78 | 0.1 | 0.1 | 0.39 | 0.05 | 0.39 | ED50 (S. aureus Smith; challenge dose 7 x 10^5 cfu/mouse, n=5, read-out: ED50 against S. aureus Smith): 0.9 mg/kg; MIC [3, 11]: 0.025 µg/mL; MIC (E. coli ML 4707; [12]): 0.025 µg/mL; MIC [7, 13]: 0.025 µg/mL; MIC (S. epidermidis IID 866; [14]): 0.05 µg/mL; MIC [8, 15]: 0.05 µg/mL
2 | CCNCC1CCN(c2c(F)cc3c(=O)c(C(=O)O)cn(C4CC4)c3c2F)C1 (stereo not drawn) [Example 2, l-Cyclopropyl-7-(3-ethylaminomethyl-l-pyrrolidinyl)-6,8-difluoro-l,4-dihydro-4-oxo-3-quinolinecarboxylic acid hydrochloride] | 0.1 | 0.05 | 0.05 | 0.05 | 0.1 | 0.025 | 0.1 | 3.13 | 0.05 | 0.1 | 1.56 | 0.1 | 0.78 | 0.05 | 0.78 | 0.2 | 0.2 | 0.1 | 0.05 | 0.78 | ED50 (S. pneumoniae S-4288): 4.6 mg/kg; ED50 (S. aureus Smith; challenge dose 5.5 x 10^5 cfu/mouse, n=5, read-out: ED50 against S. aureus Smith): 0.97 mg/kg; ED50 (S. aureus Smith; [16]): 0.9 mg/kg; ED50 (E. coli ML4707): 0.8 mg/kg; activity against gram-negative bacterial infections compared with the reference compounds (E. coli ML4707; systemic infection in mice, result in words): greater activity against gram-negative bacterial infections than the reference compounds; MIC [3, 11]: 0.0125 µg/mL; MIC (E. coli ML 4707; [12]): 0.025 µg/mL; MIC [7, 13]: 0.025 µg/mL; MIC (S. epidermidis IID 866; [14]): 0.05 µg/mL; MIC [8, 15]: 0.025 µg/mL
3 | CNCC1CCN(c2c(F)cc3c(=O)c(C(=O)O)cn(C4CC4)c3c2F)C1 (stereo not drawn) [Example 8, 1-Cyclopropyl-6,8-difluoro-1,4-dihydro-7-(3-methylaminomethyl-l-pyrrolidinyl)-4-oxo-3-quinolinecarboxylic acid hydrochloride] | 0.1 | 0.025 | 0.05 | 0.05 | 0.2 | 0.025 | 0.1 | 1.56 | 0.05 | 0.2 | 0.78 | 0.05 | 0.39 | 0.025 | 0.78 | 0.1 | 0.1 | 0.39 | 0.05 | 0.78 | ED50 (S. pneumoniae S-4288): 16.1 mg/kg; ED50 (S. aureus Smith; [16]): 1.1 mg/kg; ED50 (E. coli ML4707): 1.9 mg/kg; MIC ([3]; Bacillus subtilis): 0.0125 µg/mL; MIC (E. coli ML 4707; [12]): 0.025 µg/mL; MIC [7, 13]: 0.025 µg/mL; MIC (S. epidermidis IID 866; [14]): 0.025 µg/mL; MIC [8, 15]: 0.025 µg/mL
4 | CNCC1CCN(c2c(F)cc3c(=O)c(C(=O)O)cn(C4CC4)c3c2Cl)C1 (stereo not drawn) [Example 12, 8-Chloro-l-cyclopropyl-6-fluoro-1,4-dihydro-7-(3-methylaminomethyl-1-pyrrolidinyl)-4-oxo-3-quinolinecarboxylic acid hydrochloride] | 0.05 | 0.05 | 0.05 | 0.025 | 0.05 | 0.025 | 0.05 | 1.56 | 0.05 | 0.1 | 0.39 | 0.05 | 0.1 | 0.05 | 0.39 | 0.1 | 0.1 | 0.39 | 0.05 | 0.39 | ED50 (S. pneumoniae S-4288): 6.5 mg/kg; ED50 (S. aureus Smith; [16]): 0.5 mg/kg; ED50 (E. coli ML4707): 1.9 mg/kg; MIC [3, 11]: 0.0125 µg/mL; MIC (E. coli ML 4707; [12]): 0.025 µg/mL; MIC [7, 13]: 0.025 µg/mL; MIC (S. epidermidis IID 866; [14]): 0.025 µg/mL; MIC [8, 15]: 0.0125 µg/mL
5 | NCC1CCN(c2c(F)cc3c(=O)c(C(=O)O)cn(C4CC4)c3c2Cl)C1 (stereo not drawn) [Example 14, 8-Chloro-l-cyclopropyl-6-fluoro-l,4-dihydro-7-(3-aminomethyl-l-pyrrolidinyl)-4-oxo-3-quinolinecarboxylic acid hydrochloride] | 0.05 | 0.025 | 0.025 | 0.025 | 0.05 | 0.025 | 0.05 | 0.39 | 0.05 | 0.05 | 0.39 | 0.05 | 0.05 | 0.025 | 0.39 | 0.05 | 0.1 | 0.2 | 0.025 | 0.2 | ED50 (S. pneumoniae S-4288): 10 mg/kg; ED50 (E. coli ML4707): 5.4 mg/kg; MIC ([3]; Bacillus subtilis): 0.0125 µg/mL; MIC (E. coli ML 4707): 0.0125 µg/mL; MIC ([7]; NIHJJC2): 0.0125 µg/mL; MIC (S. epidermidis IID 866; IID866): 0.0125 µg/mL; MIC ([8]; Staphylococcus aureus, 209P): 0.0125 µg/mL

Reference: patent publication EP0183129A1, “Quinolonecarboxylic acid derivatives” (KYORIN PHARMACEUTICAL CO., LTD., priority 1984, dated 1986)
